Measurements reported in PubChem BioAssay AID248 (DTP/NCI, 2004).
Values joined by “and” are separate entries in the source; they are usually repeats but may differ in a detail not shown here. Equal values may be shown once. Toxic doses and inconclusive results are not listed. Cut-off read from the data, not from the text of the source: active = T/C of 150% or more; inactive = T/C below 125%.

Tested on: L1210 leukemia ip in BDF1 mice, survival T/C
Assay: NCI In Vivo Anticancer Drug Screen. Data for tumor model L1210 Leukemia (intraperitoneal) in B6D2F1 (BDF1) mice
Conditions: endpoint: mean survival time, higher = longer survival
Outline: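 Transplantable tumor model; survival measured in treated vs vehicle control mice. Value = treated/control.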

[1] = dose: 100.0 mg/kg/injection, schedule: Q01DX001 (ip), vehicle: Klucel (hydroxypropylcellulose) (HPC)
[2] = dose: 200.0 mg/kg/injection, schedule: Q01DX001 (ip), vehicle: Klucel (hydroxypropylcellulose) (HPC)
[3] = dose: 100.0 mg/kg/injection, schedule: Q04DX003 (ip), vehicle: Klucel (hydroxypropylcellulose) (HPC)
[4] = dose: 200.0 mg/kg/injection, schedule: Q04DX003 (ip), vehicle: Klucel (hydroxypropylcellulose) (HPC)
[5] = dose: 400.0 mg/kg/injection, schedule: Q04DX003 (ip), vehicle: Klucel (hydroxypropylcellulose) (HPC)
[6] = dose: 100.0 mg/kg/injection, schedule: Q04DX002 (ip), vehicle: Klucel (hydroxypropylcellulose) (HPC)
[7] = dose: 200.0 mg/kg/injection, schedule: Q04DX002 (ip), vehicle: Klucel (hydroxypropylcellulose) (HPC)
[8] = dose: 400.0 mg/kg/injection, schedule: Q04DX002 (ip), vehicle: Klucel (hydroxypropylcellulose) (HPC)
[9] = dose: 100.0 mg/kg/injection, schedule: Q01DX001 (ip), vehicle: saline with Tween-80
[10] = dose: 100.0 mg/kg/injection, schedule: Q04DX003 (ip), vehicle: saline with Tween-80
[11] = dose: 50.0 mg/kg/injection, schedule: Q01DX001 (ip), vehicle: saline with Tween-80
[12] = dose: 100.0 mg/kg/injection, schedule: Q01DX001 (ip), vehicle: carboxymethylcellulose (CMC)
[13] = dose: 200.0 mg/kg/injection, schedule: Q01DX001 (ip), vehicle: carboxymethylcellulose (CMC)
[14] = dose: 100.0 mg/kg/injection, schedule: Q04DX003 (ip), vehicle: saline
[15] = dose: 200.0 mg/kg/injection, schedule: Q04DX003 (ip), vehicle: saline
[16] = dose: 400.0 mg/kg/injection, schedule: Q04DX003 (ip), vehicle: saline
[17] = dose: 100.0 mg/kg/injection, schedule: Q01DX001 (ip), vehicle: saline
[18] = dose: 200.0 mg/kg/injection, schedule: Q01DX001 (ip), vehicle: saline
[19] = dose: 400.0 mg/kg/injection, schedule: Q01DX001 (ip), vehicle: saline
[20] = dose: 50.0 mg/kg/injection, schedule: Q01DX001 (ip), vehicle: carboxymethylcellulose (CMC)
[21] = dose: 400.0 mg/kg/injection, schedule: Q01DX001 (ip), vehicle: carboxymethylcellulose (CMC)

Measured: T/C

O=C(O)CCSc1ccccc1
inactive: dose: 40.0 mg/kg/injection, schedule: Q01DX009 (ip), vehicle: saline with Tween-80 96 % of control | dose: 75.0 mg/kg/injection, schedule: Q01DX009 (ip), vehicle: saline with Tween-80 88 % of control | dose: 75.0 mg/kg/injection, schedule: Q04DX003 (ip), vehicle: saline 96 % of control | dose: 150.0 mg/kg/injection, schedule: Q01DX009 (ip), vehicle: saline with Tween-80 101 % of control

c1ccc(-c2cc(-c3ccccc3)c(-c3ccccc3)o2)cc1
inactive: dose: 50.0 mg/kg/injection, schedule: Q01DX001 (ip), vehicle: Klucel (hydroxypropylcellulose) (HPC) 92 % of control | [1] 100 % of control | [2] 92 % of control

O=C(Cl)C(c1ccccc1)c1ccccc1
inactive: [3] 108 % of control | [4] 98 % of control | [5] 96 % of control

O=C1Nc2ccc(Br)cc2C1=Nc1cccnc1
inactive: [6] 116 % of control | [7] 95 % of control | [8] 116 % of control

Nc1ncnc(N)c1NC(=O)c1cc(Cl)cc(Cl)c1
inactive: [3] 91 % of control | [5] 86 % of control

O=C(NC(CCl)c1ccccc1)c1ccc([N+](=O)[O-])cc1 (stereo not drawn)
inactive: dose: 75.0 mg/kg/injection, schedule: Q04DX003 (ip), vehicle: Klucel (hydroxypropylcellulose) (HPC) 100 % of control | [1] 98 % of control | dose: 150.0 mg/kg/injection, schedule: Q04DX003 (ip), vehicle: Klucel (hydroxypropylcellulose) (HPC) 103 % of control | [2] 104 % of control | dose: 300.0 mg/kg/injection, schedule: Q04DX003 (ip), vehicle: Klucel (hydroxypropylcellulose) (HPC) 97 % of control | dose: 400.0 mg/kg/injection, schedule: Q01DX001 (ip), vehicle: Klucel (hydroxypropylcellulose) (HPC) 104 % of control

[N-]=[N+]=NCc1nnc2ncnc(N)c2n1
inactive: dose: 25.0 mg/kg/injection, schedule: Q01DX009 (ip), vehicle: saline with Tween-80 88 % of control | dose: 25.0 mg/kg/injection, schedule: Q04DX003 (ip), vehicle: saline with Tween-80 94 % of control | dose: 50.0 mg/kg/injection, schedule: Q04DX003 (ip), vehicle: saline with Tween-80 105 % of control | [9] 95 % of control | [10] 102 % of control

CCC(c1ccc2cc(OC)ccc2c1)C(CC(=O)O)C(=O)OC (stereo not drawn)
inactive: [3] 100 % of control | [4] 96 % of control | [5] 91 % of control

OC1CCC2CC12 (stereo not drawn)
inactive: [11] 98 % of control | [9] 102 % of control and 106 % of control | dose: 200.0 mg/kg/injection, schedule: Q01DX001 (ip), vehicle: saline with Tween-80 107 % of control and 95 % of control | dose: 400.0 mg/kg/injection, schedule: Q01DX001 (ip), vehicle: saline with Tween-80 93 % of control

N#C/C(=C\c1cccs1)c1ccccc1
inactive: dose: 50.0 mg/kg/injection, schedule: Q04DX003 (ip), vehicle: Klucel (hydroxypropylcellulose) (HPC) 110 % of control | [3] 98 % of control | [4] 104 % of control

CC(C)(C)OC(=O)NOC(=O)c1ccc([N+](=O)[O-])cc1
inactive: [6] 104 % of control | [7] 96 % of control | [8] 107 % of control

CN(C)c1ncnc2c1cnn2C
inactive: [12] 96 % of control | [13] 110 % of control

CON(C)C(=O)CCN1CC1
inactive: dose: 10.0 mg/kg/injection, schedule: Q01DX009 (ip), vehicle: saline 97 % of control | dose: 20.0 mg/kg/injection, schedule: Q01DX009 (ip), vehicle: saline 94 % of control | dose: 20.0 mg/kg/injection, schedule: Q04DX003 (ip), vehicle: saline 100 % of control | dose: 40.0 mg/kg/injection, schedule: Q01DX009 (ip), vehicle: saline 97 % of control | dose: 40.0 mg/kg/injection, schedule: Q04DX003 (ip), vehicle: saline 100 % of control | dose: 80.0 mg/kg/injection, schedule: Q04DX003 (ip), vehicle: saline 104 % of control | [14] 94 % of control

Cc1ccc(NC(=O)Oc2cccnc2)cc1NC(=O)Oc1cccnc1
inactive: dose: 100.0 mg/kg/injection, schedule: Q01DX009 (ip), vehicle: Klucel (hydroxypropylcellulose) (HPC) 93 % of control | dose: 200.0 mg/kg/injection, schedule: Q01DX009 (ip), vehicle: Klucel (hydroxypropylcellulose) (HPC) 94 % of control

COc1cccc(CO)c1-c1c(CO)cccc1OC
inactive: [14] 95 % of control | [15] 97 % of control | [16] 97 % of control

CCOC1=CCCCC1
inactive: dose: 50.0 mg/kg/injection, schedule: Q01DX001 (ip), vehicle: saline 101 % of control | [17] 103 % of control | [18] 103 % of control | [19] 101 % of control

CC(C)O[Si](C)(C)CCl
inactive: [20] 98 % of control | [12] 86 % of control | [13] 90 % of control | [21] 92 % of control

CCCCCCCCCCCC(=O)NC(=S)Nc1ccc(C)c(C)c1
inactive: [11] 86 % of control | [9] 91 % of control | dose: 100.0 mg/kg/injection, schedule: Q01DX009 (ip), vehicle: saline with Tween-80 90 % of control and 91 % of control | dose: 100.0 mg/kg/injection, schedule: Q04DX002 (ip), vehicle: saline with Tween-80 103 % of control and 91 % of control | [10] 93 % of control | dose: 200.0 mg/kg/injection, schedule: Q01DX009 (ip), vehicle: saline with Tween-80 103 % of control and 105 % of control | dose: 200.0 mg/kg/injection, schedule: Q04DX002 (ip), vehicle: saline with Tween-80 94 % of control and 88 % of control | dose: 200.0 mg/kg/injection, schedule: Q04DX003 (ip), vehicle: saline with Tween-80 90 % of control | dose: 400.0 mg/kg/injection, schedule: Q04DX002 (ip), vehicle: saline with Tween-80 94 % of control and 91 % of control | dose: 400.0 mg/kg/injection, schedule: Q04DX003 (ip), vehicle: saline with Tween-80 88 % of control

C=C(C)C1CC=C(C)CC1 (stereo not drawn)
inactive: [17] 111 % of control | dose: 100.0 mg/kg/injection, schedule: Q01DX009 (ip), vehicle: saline 91 % of control | [14] 110 % of control | [18] 105 % of control | [15] 97 % of control | [19] 111 % of control | [16] 97 % of control

CC(=O)NC(CSC(=N)N)C(=O)O (stereo not drawn)
inactive: [20] 107 % of control | [12] 98 % of control | [13] 98 % of control | [21] 102 % of control

CCN(CC)c1ccc(/C=N/NC(=S)NC23CC4CC(CC(C4)C2)C3)cc1
inactive: dose: 75.0 mg/kg/injection, schedule: Q01DX001 (ip), vehicle: saline 100 % of control | dose: 150.0 mg/kg/injection, schedule: Q01DX001 (ip), vehicle: saline 101 % of control | dose: 300.0 mg/kg/injection, schedule: Q01DX001 (ip), vehicle: saline 92 % of control

CCCCOB(OCCCC)c1ccc(SC)cc1
inactive: dose: 100.0 mg/kg/injection, schedule: Q04DX003 (ip), vehicle: alcohol 111 % of control | dose: 200.0 mg/kg/injection, schedule: Q04DX003 (ip), vehicle: alcohol 103 % of control | dose: 400.0 mg/kg/injection, schedule: Q04DX003 (ip), vehicle: alcohol 118 % of control
